# Tests used:
# [1] = tested on: rat mammary cancer 13762F tumor cells; assay: In vivo tumor growth after intratumoral injection of radiopharmaceuticals (rat mammary cancer model); parameters: species or system Fischer 344 female rats
# Procedure: The radionuclides YCl3, ^111In—Cl, and ^201Tl—Cl were obtained from a local supplier of radioisotopes, Iso-Tex Diagnostics (Friendswood, Tex.). YCl3 obtained from the supplier was in an acidic preparation with a pH of 2-3, and was subsequently diluted in saline to a final pH of about 4-6 before injection. Initial activities of ^111In—Cl and YCl3 were about 200-500 mCi/ml, and dilution were made with preservative-free saline. YIMA was prepared by co-precipitation, as set forth in U.S. Ser. No. 10/724,027. Briefly, 500 μl of FeCl3 (1 mg Fe/ml) was added to 30 μl of ^90Y chloride (20-40 μCi/30 μl), and either 30 μl of NaOH (1.0 N) or 10 μl of NH4OH (20.0%) was added to the solution to reach a pH of about 7.0 to 9.0. Co-precipitated YIMA radiopharmaceutical macroaggregates were then separated from remaining soluble radionuclides by centrifuging the reactions from 1500 RPM to 3000 RPM×5 minutes, and filtered using a Millipore Nylone (size: 0.45 μm, diameter: 13 mm) to isolate the radiopharmaceutical macroaggregates.
# The rat model of in vivo tumor growth was generated as follows. On day zero, 100,000 rat mammary cancer 13762F tumor cells were implanted in a volume of 0.15 ml into the right thigh muscle of Fischer 344 female rats weighing approximately 160 grams. […] YIMA was injected in a volume of 0.2 ml on days 3-7 after tumor implantation. Tumor sizes and body weights of the rats were monitored regularly (5 times a week) for several weeks, or until the tumors grew beyond 2.5 cm, at which time the rats were euthanized.
# CSF proteins = assay: Binding to CSF proteins (Centrifree filter separation); format: in vitro ADME, human (patients); settings: 0.2, 0.5 or 1 μCi added to diluted CSF, 20 minutes; physiologic range, all concentrations tested
# Procedure: To test the hypothesis that local sequestration of ^111In—Cl is due to protein binding, both ^111In—Cl and YCl3 were tested for binding to CSF and serum proteins. Serum proteins were obtained from residual baseline serum and CSF proteins were obtained from patients participating in other research protocols who had consented to blood sampling. To determine the level of ^111In—Cl protein binding, 0.2, 0.5, or 1 μCi of ^111In—Cl was added to diluted CSF (0.125 or 0.5) or diluted serum protein (0.125 and 0.25) and incubated for 20 minutes. To determine the level of YCl3 protein binding, 0.2, 0.5, or 1 μCi of YCl3 was added to diluted CSF (0.063 or 0.5) or diluted serum protein (0.063 and 0.375), and incubated for 20 minutes. After incubation, free radiopharmaceuticals were separated from protein bound ^111In—Cl or YCl3 using Amicon Centrifree Micropartition filters in a single centrifugation step at 3000 g for 15 minutes according to manufacturer's instructions (Amicon, Beverly, Mass.). The percent binding of YCl3 or ^111In—Cl to the CSF or serum protein was then calculated. As shown in FIG. 6 and FIG. 7 respectively, both YCl3 and ^111In—Cl bind avidly to CSF and serum protein within the physiologic range (a dilution factor between 0.2 and 0.6) at all concentrations tested. At room temperature, both YCl3 and ^111In—Cl have greater than 95% binding to serum proteins.
# serum proteins = assay: Binding to serum proteins (Centrifree filter separation); format: in vitro ADME, human (patients); settings: 0.2, 0.5 or 1 μCi added to diluted serum protein, 20 minutes; physiologic range, all concentrations tested
# Procedure: To test the hypothesis that local sequestration of ^111In—Cl is due to protein binding, both ^111In—Cl and YCl3 were tested for binding to CSF and serum proteins. Serum proteins were obtained from residual baseline serum and CSF proteins were obtained from patients participating in other research protocols who had consented to blood sampling. To determine the level of ^111In—Cl protein binding, 0.2, 0.5, or 1 μCi of ^111In—Cl was added to diluted CSF (0.125 or 0.5) or diluted serum protein (0.125 and 0.25) and incubated for 20 minutes. To determine the level of YCl3 protein binding, 0.2, 0.5, or 1 μCi of YCl3 was added to diluted CSF (0.063 or 0.5) or diluted serum protein (0.063 and 0.375), and incubated for 20 minutes. After incubation, free radiopharmaceuticals were separated from protein bound ^111In—Cl or YCl3 using Amicon Centrifree Micropartition filters in a single centrifugation step at 3000 g for 15 minutes according to manufacturer's instructions (Amicon, Beverly, Mass.). The percent binding of YCl3 or ^111In—Cl to the CSF or serum protein was then calculated. As shown in FIG. 6 and FIG. 7 respectively, both YCl3 and ^111In—Cl bind avidly to CSF and serum protein within the physiologic range (a dilution factor between 0.2 and 0.6) at all concentrations tested. At room temperature, both YCl3 and ^111In—Cl have greater than 95% binding to serum proteins. […]
# [2] = Biodistribution and projected human radiation dosimetry after intravenous or intramuscular injection; format: in vivo, female Fisher rats; settings: for human dosimetry estimate, kidney / human dosimetry estimate, red marrow: from rat biodistribution
# Procedure: To evaluate the radiation toxicity of YCl3 after intravenous or intramuscular injection, parallel experiments were performed to evaluate the biodistribution and projected human radiation dosimetry of both ^111In—Cl and YCl3. The experiments used three female Fisher rats (140-160 grams) for each set of injections. Each rat was injected intravenously, or was injected intramuscularly in the right thigh, with 0.05 mCi of YCl3 or ^111In—Cl (with no carrier added) in 0.1 ml saline (pH 5-6). The effect of initial exposure of the radiopharmaceuticals to interstitial fluid was estimated by serum protein binding experiments using Millipore Centrifree filters as set forth in Example 2. Organs including the right and left femur, as well as the right and left thigh muscles, were harvested from each rat 7 days after injection. Human dosimetry for each radiopharmaceutical was constructed using established anthropomorphic models.
# [3] = intratracheal instillation (Hirano et al. 1990); cited from earlier work
# [4] = locoregional administration in rats
structure (smiles),measurement,setting,value
"[Cl][90Y]([Cl])[Cl] [YCl3, Yttrium-90 chloride]",tumor development,"[1]; 1 mCi intratumoral on day 10 in 0.1-0.2 ml saline, FIG. 2",significantly suppressed
same,tumor growth,"[1]; 100 μCi intratumoral on day 10 in 0.1-0.2 ml saline, FIG. 2",not significantly suppressed
same,tumor development,"[1]; 200 μCi intratumoral on day 10 in 0.1-0.2 ml saline, FIG. 2",significantly suppressed
same,tumor development,"[1]; 500 μCi intratumoral on day 10 in 0.1-0.2 ml saline, FIG. 2",significantly suppressed
same,tumor growth,"[1]; FIG. 3, in 0.2-0.3 ml saline, YCl3 0.3, 0.6, 1.5 mCi, ^111In—Cl 0.6, 1.2, 2.4, 4.8 mCi, ^67Ga 0.6 mCi",significantly suppressed tumor growth
same,tumor growth,"[1]; FIG. 4, in 0.5 ml saline, YCl3 0.5, 1.0, 2.0 mCi, ^111In—Cl 1.0, 4.0 mCi, FDG 1.0, 2.0, 3.0 mCi, ^67Ga—Fe 1.77 mCi",significantly suppressed tumor growth
same,tumor growth,"[1]; at least 200 μCi intratumoral, FIG. 2",clearly suppressed
same,dose equivalent for humans at which mortality occurred,[1]; [4],350 mCi/70 Kg
same,lowest dose with consistently observed local tumor suppression effects,[1]; [4],0.2 mCi
same,mortality after locoregional administration,"[1]; rats, sporadically, at high dose equivalents for humans (e.g., 350 mCi/70 Kg)",some mortality was observed
same,binding to CSF,CSF proteins,bind avidly
same,binding to serum protein,serum proteins,bind avidly
same,skeletal distribution,[2]; estimated from the left femur (opposite to the injection site),about 16%
same,radiation uptake in the right thigh muscle,[2]; intramuscular injection in right thigh,high
same,radiation uptake in right femur versus contralateral organ,"[2]; intramuscular injection in right thigh, decreasing over time to",3 times higher
same,radiation uptake in right femur versus contralateral organ,"[2]; intramuscular injection in right thigh, initial",6 times higher
same,"human dosimetry estimate, kidney",[2]; intramuscular,1.47 cGy/mCi
same,"human dosimetry estimate, red marrow",[2]; intramuscular,0.65 cGy/mCi
same,organs with the highest uptake,"[2]; intravenous injection, 0.05 mCi in 0.1 ml saline","spleen, liver, and kidney"
same,"human dosimetry estimate, kidney",[2]; intravenous,13.1 cGy/mCi
same,"human dosimetry estimate, red marrow",[2]; intravenous,5.77 cGy/mCi
same,pulmonary retention half-life,[3],169 days

# Source: US8329141B2, “Locoregional internal radionuclide ablation of abnormal tissues” (Board of Regents, The University of Texas System, priority 2004, dated 2012)
